In US20240210412A1, “SULFONYL-TRIAZOLE COMPOUNDS USEFUL AS LIGANDS AND INHIBITORS OF PROSTAGLANDIN REDUCTASE 2” (University of Virginia Patent Foundation, priority 2021, published 2024):

Experiments:
Assay in all cases: SILAC LC-MS ABPP
Assay type in all cases: cell-based
Settings in all cases: 25 μM 2 h, live DM93 cells
[1] = target: T1, P60900 (Homo sapiens, UniProt P60900)
T1 construct: endogenous in cells; host or cells: DM93 cells (SILAC)
Method in brief: (§1)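 Competitive activity-based profiling in isotopically labelled DM93 melanoma cells. Heavy cells received 25 μM sulfonyl-triazole ligand and light cells vehicle, each for 2 h at 37 °C, before 2 h with 100 μM HHS-475. Labelled soluble proteins were tagged via CuAAC, combined, digested and enriched before LC-MS/MS.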

[2] = target: T2, Q01082 (Homo sapiens, UniProt Q01082)
T2 construct: performing SuTEx compound screening directly in cells; endogenous in cells; host or cells: DM93 cells (SILAC)
Method in brief: as §1

[3] = target: T3, Q14978 (Homo sapiens, UniProt Q14978)
T3 construct: performing SuTEx compound screening directly in cells; endogenous in cells; host or cells: DM93 cells (SILAC), soluble fraction
Method in brief: as §1

[4] = target: T4, O95163 (Homo sapiens, UniProt O95163)
T4 construct: endogenous in cells; host or cells: DM93 cells (SILAC)
Method in brief: as §1

[5] = target: T5, Q13107 (Homo sapiens, UniProt Q13107)
T5 construct: performing SuTEx compound screening directly in cells; endogenous in cells; host or cells: DM93 cells (SILAC), soluble fraction
Method in brief: as §1

[6] = target: T6, Q6ZSZ5 (Homo sapiens, UniProt Q6ZSZ5)
T6 construct: endogenous in cells; host or cells: DM93 cells (SILAC), live-cell treatment
Method in brief: as §1

[7] = target: T7, P54578 (Homo sapiens, UniProt P54578)
T7 construct: endogenous in cells; host or cells: DM93 cells (SILAC)
Method in brief: as §1

[8] = target: T8, P56945 (Homo sapiens, UniProt P56945)
T8 construct: Probe-modified proteins from the soluble fraction were conjugated to a desthiobiotin-azide tag; endogenous in cells; host or cells: DM93 cells (SILAC)
Method in brief: as §1

[9] = target: T9, P22059 (Homo sapiens, UniProt P22059)
T9 construct: endogenous in cells; host or cells: DM93 (SILAC)
Method in brief: as §1

[10] = target: T10, O60506 (Homo sapiens, UniProt O60506)
T10 construct: endogenous in cells; host or cells: DM93
Method in brief: as §1

[11] = target: T11, Q16836 (Homo sapiens, UniProt Q16836)
T11 construct: performing SuTEx compound screening directly in cells; endogenous in cells; host or cells: DM93 cells (SILAC), soluble fraction
Method in brief: as §1

[12] = target: T12, P31948 (Homo sapiens, UniProt P31948)
T12 construct: endogenous in cells; host or cells: DM93 (SILAC)
Method in brief: as §1

[13] = target: T13, Q09028 (Homo sapiens, UniProt Q09028)
T13 construct: performing SuTEx compound screening directly in cells; endogenous in cells; host or cells: DM93 cells (SILAC)
Method in brief: as §1

[14] = target: T14, O00571 (Homo sapiens, UniProt O00571)
T14 construct: endogenous in cells; host or cells: DM93
Method in brief: as §1

[15] = target: T15, P12081 (Homo sapiens, UniProt P12081)
T15 construct: endogenous in cells; host or cells: DM93 cells (SILAC)
Method in brief: as §1

[16] = target: T16, Q92620 (Homo sapiens, UniProt Q92620)
T16 construct: endogenous in cells; host or cells: DM93 cells (SILAC), live-cell treatment
Method in brief: as §1

[17] = target: T17, P61978 (Homo sapiens, UniProt P61978)
T17 construct: performing SuTEx compound screening directly in cells; endogenous in cells; host or cells: DM93 cells (SILAC)
Method in brief: as §1

[18] = target: T18, P43490 (Homo sapiens, UniProt P43490)
T18 construct: endogenous in cells; host or cells: DM93 cells (SILAC)
Method in brief: as §1

T15 sequence (P12081 whole entry): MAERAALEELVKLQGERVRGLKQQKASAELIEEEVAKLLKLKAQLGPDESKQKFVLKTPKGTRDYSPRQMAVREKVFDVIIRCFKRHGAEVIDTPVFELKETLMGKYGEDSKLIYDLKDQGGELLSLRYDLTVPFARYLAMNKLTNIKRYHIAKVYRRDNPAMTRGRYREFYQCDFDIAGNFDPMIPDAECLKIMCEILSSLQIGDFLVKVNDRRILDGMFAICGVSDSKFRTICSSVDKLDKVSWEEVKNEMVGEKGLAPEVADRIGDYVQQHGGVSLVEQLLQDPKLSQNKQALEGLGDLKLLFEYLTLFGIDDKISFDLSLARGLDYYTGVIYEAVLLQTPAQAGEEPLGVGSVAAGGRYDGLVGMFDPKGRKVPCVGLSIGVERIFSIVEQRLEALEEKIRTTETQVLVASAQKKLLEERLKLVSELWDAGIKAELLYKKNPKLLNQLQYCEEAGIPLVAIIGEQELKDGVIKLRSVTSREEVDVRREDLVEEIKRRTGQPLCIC
T11 sequence (Q16836 13-314): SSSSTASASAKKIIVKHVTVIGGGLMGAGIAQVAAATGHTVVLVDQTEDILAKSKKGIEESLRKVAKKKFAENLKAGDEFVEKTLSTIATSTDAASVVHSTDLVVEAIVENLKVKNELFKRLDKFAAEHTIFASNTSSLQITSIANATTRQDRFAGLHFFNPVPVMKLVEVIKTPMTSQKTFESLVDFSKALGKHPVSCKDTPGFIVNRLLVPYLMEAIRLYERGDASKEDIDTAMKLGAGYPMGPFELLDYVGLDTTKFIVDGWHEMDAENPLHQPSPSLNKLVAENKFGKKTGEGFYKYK
T18 sequence (P43490 whole entry): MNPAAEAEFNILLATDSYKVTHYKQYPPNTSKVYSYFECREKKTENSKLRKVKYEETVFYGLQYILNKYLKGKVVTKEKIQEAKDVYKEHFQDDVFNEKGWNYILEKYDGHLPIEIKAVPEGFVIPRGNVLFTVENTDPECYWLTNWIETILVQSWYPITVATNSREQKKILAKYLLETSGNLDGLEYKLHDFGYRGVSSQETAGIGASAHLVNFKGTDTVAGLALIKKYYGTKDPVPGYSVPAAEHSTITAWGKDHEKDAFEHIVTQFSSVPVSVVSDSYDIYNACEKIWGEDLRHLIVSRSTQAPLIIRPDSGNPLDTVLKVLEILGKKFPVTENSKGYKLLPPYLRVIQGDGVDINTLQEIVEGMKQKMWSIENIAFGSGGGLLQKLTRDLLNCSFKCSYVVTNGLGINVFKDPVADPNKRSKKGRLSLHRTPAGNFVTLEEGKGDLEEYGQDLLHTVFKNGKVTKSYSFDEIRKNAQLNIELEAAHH
T6 sequence (Q6ZSZ5 whole entry): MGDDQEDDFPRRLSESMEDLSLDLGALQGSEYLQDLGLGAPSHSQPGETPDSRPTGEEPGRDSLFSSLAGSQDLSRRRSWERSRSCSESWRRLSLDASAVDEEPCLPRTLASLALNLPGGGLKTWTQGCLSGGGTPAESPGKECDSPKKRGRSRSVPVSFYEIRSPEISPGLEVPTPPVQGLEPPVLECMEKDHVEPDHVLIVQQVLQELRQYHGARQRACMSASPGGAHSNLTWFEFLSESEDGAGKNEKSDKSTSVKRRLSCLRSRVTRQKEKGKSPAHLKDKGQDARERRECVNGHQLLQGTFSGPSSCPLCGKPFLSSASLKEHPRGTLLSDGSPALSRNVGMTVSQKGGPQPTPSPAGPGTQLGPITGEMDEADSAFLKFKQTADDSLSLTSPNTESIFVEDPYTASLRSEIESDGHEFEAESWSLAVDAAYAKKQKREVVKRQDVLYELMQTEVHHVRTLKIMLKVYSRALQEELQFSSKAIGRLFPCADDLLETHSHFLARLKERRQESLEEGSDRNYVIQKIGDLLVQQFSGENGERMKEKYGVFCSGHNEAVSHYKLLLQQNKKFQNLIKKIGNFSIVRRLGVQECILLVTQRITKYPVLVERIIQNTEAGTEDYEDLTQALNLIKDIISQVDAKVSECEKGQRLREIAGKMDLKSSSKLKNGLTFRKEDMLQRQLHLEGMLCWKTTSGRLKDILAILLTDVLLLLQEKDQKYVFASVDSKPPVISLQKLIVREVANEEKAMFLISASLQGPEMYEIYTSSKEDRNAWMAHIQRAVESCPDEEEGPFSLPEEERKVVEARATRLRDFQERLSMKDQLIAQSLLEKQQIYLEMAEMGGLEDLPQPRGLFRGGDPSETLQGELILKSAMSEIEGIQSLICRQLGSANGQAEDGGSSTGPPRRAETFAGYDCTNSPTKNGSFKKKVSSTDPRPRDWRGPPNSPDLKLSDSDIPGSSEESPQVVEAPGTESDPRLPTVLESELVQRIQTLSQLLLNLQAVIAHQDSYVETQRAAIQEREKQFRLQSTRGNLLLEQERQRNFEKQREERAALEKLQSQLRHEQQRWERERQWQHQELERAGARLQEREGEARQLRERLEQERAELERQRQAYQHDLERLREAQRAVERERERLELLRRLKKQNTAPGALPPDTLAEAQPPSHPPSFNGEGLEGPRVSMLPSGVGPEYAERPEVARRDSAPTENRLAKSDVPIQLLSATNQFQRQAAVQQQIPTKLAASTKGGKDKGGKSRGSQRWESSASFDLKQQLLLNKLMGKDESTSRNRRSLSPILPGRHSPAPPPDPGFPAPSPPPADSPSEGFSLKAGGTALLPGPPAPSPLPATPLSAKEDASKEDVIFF
T4 sequence (O95163 whole entry): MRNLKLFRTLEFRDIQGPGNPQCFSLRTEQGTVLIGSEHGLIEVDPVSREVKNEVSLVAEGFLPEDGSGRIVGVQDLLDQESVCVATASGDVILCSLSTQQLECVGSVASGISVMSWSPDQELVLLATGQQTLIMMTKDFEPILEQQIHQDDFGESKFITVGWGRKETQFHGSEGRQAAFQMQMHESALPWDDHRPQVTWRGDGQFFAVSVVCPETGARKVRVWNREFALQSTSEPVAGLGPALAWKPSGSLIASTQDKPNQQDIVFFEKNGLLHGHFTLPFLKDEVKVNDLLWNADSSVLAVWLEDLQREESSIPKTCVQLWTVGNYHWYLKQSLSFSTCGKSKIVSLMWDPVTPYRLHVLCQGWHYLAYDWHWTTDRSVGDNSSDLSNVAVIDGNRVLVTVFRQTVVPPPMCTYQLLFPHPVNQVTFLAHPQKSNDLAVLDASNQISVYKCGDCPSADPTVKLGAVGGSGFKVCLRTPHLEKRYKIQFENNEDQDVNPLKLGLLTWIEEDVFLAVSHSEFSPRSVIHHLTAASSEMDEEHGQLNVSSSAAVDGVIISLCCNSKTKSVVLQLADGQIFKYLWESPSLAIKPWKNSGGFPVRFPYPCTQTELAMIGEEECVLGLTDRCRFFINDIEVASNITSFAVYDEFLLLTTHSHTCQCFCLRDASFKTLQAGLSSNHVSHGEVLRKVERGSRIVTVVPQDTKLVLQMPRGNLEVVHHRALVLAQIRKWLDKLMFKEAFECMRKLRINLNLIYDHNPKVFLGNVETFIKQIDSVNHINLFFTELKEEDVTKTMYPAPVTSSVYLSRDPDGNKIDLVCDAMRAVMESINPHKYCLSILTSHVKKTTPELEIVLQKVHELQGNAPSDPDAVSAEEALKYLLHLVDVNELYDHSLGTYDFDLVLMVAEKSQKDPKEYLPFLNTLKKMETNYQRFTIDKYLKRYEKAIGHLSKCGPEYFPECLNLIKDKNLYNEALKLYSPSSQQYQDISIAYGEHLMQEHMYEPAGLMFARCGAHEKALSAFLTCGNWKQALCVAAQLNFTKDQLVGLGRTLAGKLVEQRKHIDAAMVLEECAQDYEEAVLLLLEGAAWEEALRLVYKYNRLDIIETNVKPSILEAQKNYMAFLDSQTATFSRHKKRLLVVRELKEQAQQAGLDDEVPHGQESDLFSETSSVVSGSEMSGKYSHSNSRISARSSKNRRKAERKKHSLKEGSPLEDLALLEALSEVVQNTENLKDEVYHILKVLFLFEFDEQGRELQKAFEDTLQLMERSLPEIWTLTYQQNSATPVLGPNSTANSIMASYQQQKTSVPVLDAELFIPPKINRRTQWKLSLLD
T10 sequence (O60506 whole entry): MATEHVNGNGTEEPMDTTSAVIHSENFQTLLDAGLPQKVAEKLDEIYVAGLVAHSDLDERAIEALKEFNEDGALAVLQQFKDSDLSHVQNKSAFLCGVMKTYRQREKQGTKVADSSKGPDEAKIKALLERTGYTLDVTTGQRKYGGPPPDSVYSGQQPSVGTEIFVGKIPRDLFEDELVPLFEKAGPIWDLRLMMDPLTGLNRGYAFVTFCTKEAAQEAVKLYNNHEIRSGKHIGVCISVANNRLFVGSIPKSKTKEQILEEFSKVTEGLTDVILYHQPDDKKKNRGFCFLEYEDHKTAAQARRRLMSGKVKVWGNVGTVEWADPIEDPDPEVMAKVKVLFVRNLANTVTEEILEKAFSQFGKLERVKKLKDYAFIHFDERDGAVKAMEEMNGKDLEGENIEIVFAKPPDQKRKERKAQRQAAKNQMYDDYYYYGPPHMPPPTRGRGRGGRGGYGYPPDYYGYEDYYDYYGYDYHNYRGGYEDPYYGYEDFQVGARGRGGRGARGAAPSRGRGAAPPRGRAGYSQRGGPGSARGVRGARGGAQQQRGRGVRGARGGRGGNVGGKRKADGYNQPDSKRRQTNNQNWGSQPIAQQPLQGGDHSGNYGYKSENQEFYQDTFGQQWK
T13 sequence (Q09028 whole entry): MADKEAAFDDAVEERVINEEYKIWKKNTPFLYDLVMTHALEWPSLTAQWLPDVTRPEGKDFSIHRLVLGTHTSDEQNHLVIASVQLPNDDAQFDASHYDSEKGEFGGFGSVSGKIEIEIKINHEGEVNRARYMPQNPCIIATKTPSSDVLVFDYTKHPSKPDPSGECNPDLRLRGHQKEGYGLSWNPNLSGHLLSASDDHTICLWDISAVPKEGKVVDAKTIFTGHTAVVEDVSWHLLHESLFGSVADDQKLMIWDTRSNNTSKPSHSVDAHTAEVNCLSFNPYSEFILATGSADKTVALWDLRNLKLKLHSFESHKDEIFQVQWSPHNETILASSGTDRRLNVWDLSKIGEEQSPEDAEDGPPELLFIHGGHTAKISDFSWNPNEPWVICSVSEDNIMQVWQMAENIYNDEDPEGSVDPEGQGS

In the case of `O=C(NC1CC1)c1ccc(S(=O)(=O)n2cncn2)cc1` [HHS-0101, 4-((1H-1,2,4-triazol-1-yl)sulfonyl)-N-cyclopropylbenzamide], the “liganded tyrosine site 103” value [1] is reported as “HHS0101.Y|HHS0201.Y|HHS0401.Y (tyrosine sites that showed >80% reductions (SR >5) in probe labeling in cells treated with compounds (liganded sites))”, the “liganded tyrosine site 777” value [2] is reported as “HHS0101.Y|HHS0201.Y|HHS0401.Y (tyrosine sites that showed >80% reductions (SR >5) in probe labeling in cells treated with compounds (liganded sites))” and the “liganded tyrosine site 289” value [3] is reported as “HHS0101.Y|HHS0701.Y (tyrosine sites that showed >80% reductions (SR >5) in probe labeling in cells treated with compounds (liganded sites))”. The “liganded tyrosine site 957” value [4] was “HHS0101.Y|HHS0301.Y|HHS0401.Y (tyrosine sites that showed >80% reductions (SR >5) in probe labeling in cells treated with compounds (liganded sites))”.

In the case of `O=C(NCC1CC1)c1ccc(S(=O)(=O)n2cncn2)cc1` [HHS-0201, 4-((1H-1,2,4-triazol-1-yl)sulfonyl)-N-(cyclopropylmethyl)benzamide], the “liganded tyrosine site 192” value [5] is reported as “HHS0201.Y|HHS0301.Y (tyrosine sites that showed >80% reductions (SR >5) in probe labeling in cells treated with compounds (liganded sites))”, the “liganded tyrosine site 1012” value [6] is reported as “HHS0201.Y (tyrosine sites that showed >80% reductions (SR >5) in probe labeling in cells treated with compounds (liganded sites))” and the “liganded tyrosine site 401” value [7] is reported as “HHS0201.Y (tyrosine sites that showed >80% reductions (SR >5) in probe labeling in cells treated with compounds (liganded sites))”. For the same compound, the “liganded tyrosine site 267” value [8] was “HHS0201.Y (tyrosine sites that showed >80% reductions (SR >5) in probe labeling in cells treated with compounds (liganded sites))”, the “liganded tyrosine site 764” value [9] was “HHS0201.Y|HHS0701.Y (tyrosine sites that showed >80% reductions (SR >5) in probe labeling in cells treated with compounds (liganded sites))” and the “liganded tyrosine site 570” value [10] was “HHS0201.Y|HHS0301.Y|HHS0401.Y|HHS0701.Y (tyrosine sites that showed >80% reductions (SR >5) in probe labeling in cells treated with compounds (liganded sites))”. The “liganded tyrosine site 264” value [11] was “HHS0201.Y|HHS0401.Y|HHS0701.Y (tyrosine sites that showed >80% reductions (SR >5) in probe labeling in cells treated with compounds (liganded sites))”.

With `O=C(NC1CCCCC1)c1ccc(S(=O)(=O)n2cncn2)cc1` [HHS-0301, 4-((1H-1,2,4-triazol-1-yl)sulfonyl)-N-cyclohexylbenzamide] the “liganded tyrosine site 134” value [12] was “HHS0301.Y (tyrosine sites that showed >80% reductions (SR >5) in probe labeling in cells treated with compounds (liganded sites))” and the “liganded tyrosine site 154” value [13] was “HHS0301.Y|HHS0701.Y (tyrosine sites that showed >80% reductions (SR >5) in probe labeling in cells treated with compounds (liganded sites))”.

`O=C(NCc1ccccc1)c1ccc(S(=O)(=O)n2cncn2)cc1` [HHS-0401, 4-((1H-1,2,4-triazol-1-yl)sulfonyl)-N-benzylbenzamide] was tested, and the “liganded tyrosine site 266” value [14] was “HHS0401.Y (tyrosine sites that showed >80% reductions (SR >5) in probe labeling in cells treated with compounds (liganded sites))”.

With `O=C(c1ccc(S(=O)(=O)n2cncn2)cc1)N1CCC(c2ccccc2)CC1` [HHS-0701, (4-((1H-1,2,4-triazol-1-yl)sulfonyl)phenyl)(4-phenylpiperidin-1-yl)methanone] the “liganded tyrosine site 168” value [15] was “HHS0701.Y (tyrosine sites that showed >80% reductions (SR >5) in probe labeling in cells treated with compounds (liganded sites))”, the “liganded tyrosine site 172” value [15] was “HHS0701.Y (tyrosine sites that showed >80% reductions (SR >5) in probe labeling in cells treated with compounds (liganded sites))” and the “liganded tyrosine site 261” value [16] was “HHS0701.Y (tyrosine sites that showed >80% reductions (SR >5) in probe labeling in cells treated with compounds (liganded sites))”. For the same compound, the “liganded tyrosine site 138” value [17] was “HHS0701.Y (tyrosine sites that showed >80% reductions (SR >5) in probe labeling in cells treated with compounds (liganded sites))” and the “liganded tyrosine site 188” value [18] was “HHS0701.Y (tyrosine sites that showed >80% reductions (SR >5) in probe labeling in cells treated with compounds (liganded sites))”.
